Laboratory results reported in patent US10428044B2, “3-amino-1,5,6,7-tetrahydro-4H-indol-4-ones” (Bayer Pharma Aktiengesellschaft, priority 2014, dated 2019).

Biological target: (recombinant) catalytic domain of human Bub1 (amino acids 704-1085) (Homo sapiens (Human), UniProt O43683)
Test: Bub1 kinase assay (TR-FRET)
Type: biochemical
Details: ATP 10 μM final, peptide substrate 1 μM final, 60 min at 22° C., read-out: Biological Assay: Bub1 kinase assay median IC50
Outline: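 Readout was TR-FRET between a Eu-labeled antibody complex recognizing phosphoserine and streptavidin-XL665 on the biotinylated peptide, after EDTA stop and 1 h at 22° C. The kinase reaction ran for 60 min at 22° C. Values are means or medians of repeat tests, from 4-parameter fits normalized to enzyme-free and inhibitor-free controls.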

Chain of (recombinant) catalytic domain of human Bub1 (amino acids 704-1085) (O43683 704-1085): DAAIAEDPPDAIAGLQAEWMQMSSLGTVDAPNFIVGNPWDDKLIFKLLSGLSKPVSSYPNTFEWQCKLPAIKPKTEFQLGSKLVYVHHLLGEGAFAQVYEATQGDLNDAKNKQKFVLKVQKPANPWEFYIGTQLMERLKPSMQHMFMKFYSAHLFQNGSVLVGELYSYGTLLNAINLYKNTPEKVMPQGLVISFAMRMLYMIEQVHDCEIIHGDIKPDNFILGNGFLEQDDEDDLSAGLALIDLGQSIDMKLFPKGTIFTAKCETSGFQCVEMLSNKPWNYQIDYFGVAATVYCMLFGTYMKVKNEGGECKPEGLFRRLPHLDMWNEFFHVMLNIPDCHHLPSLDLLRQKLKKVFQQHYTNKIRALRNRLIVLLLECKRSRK

| IC50 [nM] | SMILES |
| --- | --- |
| > 20000 | O=C1CCCc2[nH]c(-c3cc(Cl)nc(Cl)c3)c(Nc3ccccc3)c21 [Example 217, 2-(2,6-dichloropyridin-4-yl)-3-(phenylamino)-1,5,6,7-tetrahydro-4H-indol-4-one] |
| 239 | O=C1CCCc2[nH]c(-c3ccnc(Br)c3)c(Nc3ccccc3)c21 [Example 152, 2-(2-bromopyridin-4-yl)-3-(phenylamino)-1,5,6,7-tetrahydro-4H-indol-4-one] |
| 69.1 | COCCNC(=O)Nc1cc(-c2[nH]c3c(c2Nc2ccccc2)C(=O)CCC3)ccn1 [Example 383, 1-(2-methoxyethyl)-3-{4-[4-oxo-3-(phenylamino)-4,5,6,7-tetrahydro-1H-indol-2-yl]pyridin-2-yl}urea] |
| 31.6 | O=C(COc1cccc(F)c1)Nc1cc(-c2[nH]c3c(c2Nc2ccccc2)C(=O)CCC3)ccn1 [Example 338, 2-(3-fluorophenoxy)-N-{4-[4-oxo-3-(phenylamino)-4,5,6,7-tetrahydro-1H-indol-2-yl]pyridin-2-yl}acetamide] |
| 50.2 | CC(C)C(=O)Nc1cc(-c2[nH]c3c(c2Nc2ccccc2)C(=O)CC(C)(C)C3)ccn1 [Example 132, N-{4-[6,6-dimethyl-4-oxo-3-(phenylamino)-4,5,6,7-tetrahydro-1H-indol-2-yl]pyridin-2-yl}-2-methylpropanamide] |
| 3.55 | COCCOc1cnccc1-c1[nH]c2c(c1Nc1ccccc1)C(=O)CC(C)(C)C2 [Example 410, 2-[3-(2-methoxyethoxy)pyridin-4-yl]-6,6-dimethyl-3-(phenylamino)-1,5,6,7-tetrahydro-4H-indol-4-one] |
| 94.1 | Cc1cc(-c2[nH]c3c(c2Nc2ccccc2)C(=O)CC(C)(C)C3)ccn1 [Example 149, 6,6-dimethyl-2-(2-methylpyridin-4-yl)-3-(phenylamino)-1,5,6,7-tetrahydro-4H-indol-4-one] |
| 130 | CC1(C)CC(=O)c2c([nH]c(-c3ccnc4c3OCCO4)c2Nc2ccccc2)C1 [Example 210, 2-(2,3-dihydro[1,4]dioxino[2,3-b]pyridin-8-yl)-6,6-dimethyl-3-(phenylamino)-1,5,6,7-tetrahydro-4H-indol-4-one] |
| 1540 | CCC(=O)Nc1cccc(Nc2c(-c3ccncc3)[nH]c3c2C(=O)CC(C)(C)C3)c1 [Example 98, N-(3-{[6,6-dimethyl-4-oxo-2-(pyridin-4-yl)-4,5,6,7-tetrahydro-1H-indol-3-yl]amino}phenyl)propanamide] |
| 18.8 | Cn1nnnc1Nc1cc(-c2[nH]c3c(c2Nc2ccccc2)C(=O)CCC3)ccn1 [Example 374, 2-{2-[(1-methyl-1H-tetrazol-5-yl)amino]pyridin-4-yl}-3-(phenylamino)-1,5,6,7-tetrahydro-4H-indol-4-one] |
| 8.82 | O=C(Nc1cc(-c2[nH]c3c(c2Nc2ccccc2)C(=O)CCC3)ccn1)c1ccc(F)c(F)c1 [Example 451, 3,4-difluoro-N-{4-[4-oxo-3-(phenylamino)-4,5,6,7-tetrahydro-1H-indol-2-yl]pyridin-2-yl}benzamide] |
| 48.2 | O=C(Nc1cc(-c2[nH]c3c(c2Nc2ccccc2)C(=O)CCC3)ccn1)c1ncc[nH]1 [Example 274, N-{4-[4-oxo-3-(phenylamino)-4,5,6,7-tetrahydro-1H-indol-2-yl]pyridin-2-yl}-1H-imidazole-2-carboxamide] |
| 509 | CC1(C)CC(=O)c2c([nH]c(-c3ccncc3)c2Nc2ccc([N+](=O)[O-])cc2)C1 [Example 90, 6,6-dimethyl-3-[(4-nitrophenyl)amino]-2-(pyridin-4-yl)-1,5,6,7-tetrahydro-4H-indol-4-one] |
| 99.6 | CC1CC(=O)c2c(Nc3ccccc3)c(-c3ccncc3)n(C)c2C1 (stereo not drawn) [Example 178, 1,6-dimethyl-3-(phenylamino)-2-(pyridin-4-yl)-1,5,6,7-tetrahydro-4H-indol-4-one] |
| 354 | O=C1CCCc2[nH]c(-c3ccnc(C(F)F)c3)c(Nc3ccccc3)c21 [Example 401, 2-[2-(difluoromethyl)pyridin-4-yl]-3-(phenylamino)-1,5,6,7-tetrahydro-4H-indol-4-one] |
| 600 | CC1(C)CC(=O)c2c([nH]c(-c3ccnc(NCC(F)(F)F)c3)c2Nc2ccccc2)C1 [Example 361, 6,6-dimethyl-3-(phenylamino)-2-{2-[(2,2,2-trifluoroethyl)amino]pyridin-4-yl}-1,5,6,7-tetrahydro-4H-indol-4-one] |
| 502 | CC(C)Nc1cc(-c2[nH]c3c(c2Nc2ccccc2)C(=O)CCC3)ccn1 [Example 364, 3-(phenylamino)-2-[2-(propan-2-ylamino)pyridin-4-yl]-1,5,6,7-tetrahydro-4H-indol-4-one] |
| 579 | CC1(C)CC(=O)c2c([nH]c(-c3ccnc(CO)c3)c2Nc2ccccc2)C1 [Example 437, 2-[2-(hydroxymethyl)pyridin-4-yl]-6,6-dimethyl-3-(phenylamino)-1,5,6,7-tetrahydro-4H-indol-4-one] |

| IC50 [nM] | SMILES |
| --- | --- |
| 3000 | CCC(O)c1cccc(Nc2c(-c3ccncc3)[nH]c3c2C(=O)CC(C)(C)C3)c1 (stereo not drawn) [Example 154, 3-{[3-(1-hydroxypropyl)phenyl]amino}-6,6-dimethyl-2-(pyridin-4-yl)-1,5,6,7-tetrahydro-4H-indol-4-one] |
| 40.7 | CC(F)C(=O)Nc1cc(-c2[nH]c3c(c2Nc2ccccc2)C(=O)CCC3)ccn1 (stereo not drawn) [Example 241, 2-fluoro-N-{4-[4-oxo-3-(phenylamino)-4,5,6,7-tetrahydro-1H-indol-2-yl]pyridin-2-yl}propanamide] |
| 8.04 | CC(C)C1CC(=O)c2c([nH]c(-c3ccnc(NC(=O)C4CC4)c3)c2Nc2cccc(F)c2)C1 (stereo not drawn) [Example 320, N-{4-[3-[(3-fluorophenyl)amino]-4-oxo-6-(propan-2-yl)-4,5,6,7-tetrahydro-1H-indol-2-yl]pyridin-2-yl}cyclopropanecarboxamide] |
| 20000 | COc1ccc(Nc2c(-c3ccncc3)[nH]c3c2C(=O)CC(C)(C)C3)cc1OC [Example 58, 3-[(3,4-dimethoxyphenyl)amino]-6,6-dimethyl-2-(pyridin-4-yl)-1,5,6,7-tetrahydro-4H-indol-4-one] |
| 9680 | CC1(C)CC(=O)c2c([nH]c(-c3cc(Cl)ncc3Cl)c2Nc2ccccc2)C1 [Example 215, 2-(2,5-dichloropyridin-4-yl)-6,6-dimethyl-3-(phenylamino)-1,5,6,7-tetrahydro-4H-indol-4-one] |
| 28.7 | O=C(Cc1ccsc1)Nc1cc(-c2[nH]c3c(c2Nc2ccccc2)C(=O)CCC3)ccn1 [Example 291, N-{4-[4-oxo-3-(phenylamino)-4,5,6,7-tetrahydro-1H-indol-2-yl]pyridin-2-yl}-2-(thiophen-3-yl)acetamide] |
| 20.9 | O=C1CC(C(F)(F)F)Cc2[nH]c(-c3ccncc3Cl)c(Nc3cccc(F)c3)c21 (stereo not drawn) [Example 436, 2-(3-chloropyridin-4-yl)-3-[(3-fluorophenyl)amino]-6-(trifluoromethyl)-1,5,6,7-tetrahydro-4H-indol-4-one] |
| 67.6 | CC1(C)CC(=O)c2c([nH]c(-c3ccnc(Cl)c3Cl)c2Nc2ccccc2)C1 [Example 214, 2-(2,3-dichloropyridin-4-yl)-6,6-dimethyl-3-(phenylamino)-1,5,6,7-tetrahydro-4H-indol-4-one] |
| 1050 | COC(=O)CCn1c2c(c(Nc3ccccc3)c1-c1ccncc1)C(=O)CCC2 [Example 172, methyl 3-[4-oxo-3-(phenylamino)-2-(pyridin-4-yl)-4,5,6,7-tetrahydro-1H-indol-1-yl]propanoate] |
| 208 | CC1(C)CC(=O)c2c([nH]c(-c3ccnc(NC4CCC4)c3)c2Nc2ccccc2)C1 [Example 359, 2-[2-(cyclobutylamino)pyridin-4-yl]-6,6-dimethyl-3-(phenylamino)-1,5,6,7-tetrahydro-4H-indol-4-one] |
| 49.2 | CC(=O)N(C(C)=O)c1cc(-c2[nH]c3c(c2Nc2ccccc2)C(=O)CC(C)(C)C3)ccn1 [Example 133, N-acetyl-N-{4-[6,6-dimethyl-4-oxo-3-(phenylamino)-4,5,6,7-tetrahydro-1H-indol-2 yl]pyridin-2-yl}acetamide] |
| 259 | CC(C)[n+]1ccc(-c2[nH]c3c(c2Nc2ccccc2)C(=O)CC(C)(C)C3)cc1 [Example 189, 4-[6,6-dimethyl-4-oxo-3-(phenylamino)-4,5,6,7-tetrahydro-1H-indol-2-yl]-1-(propan-2-yl)pyridinium iodide] |
| 199 | CC1(C)CC(=O)c2c(Nc3ccccc3)c(-c3ccncc3)n(CC(F)(F)F)c2C1 [Example 180, 6,6-dimethyl-3-(phenylamino)-2-(pyridin-4-yl)-1-(2,2,2-trifluoroethyl)-1,5,6,7-tetrahydro-4H-indol-4-one] |
| 5670 | CCn1c2c(c(Nc3ccccc3)c1-c1ccncc1Cl)C(=O)CCC2 [Example 177, 2-(3-chloropyridin-4-yl)-1-ethyl-3-(phenylamino)-1,5,6,7-tetrahydro-4H-indol-4-one] |
| 3990 | CNC(C)(C)C(=O)Nc1cc(-c2[nH]c3c(c2Nc2ccccc2)C(=O)CCC3)ccn1 [Example 306, N^2,2-dimethyl-N-{4-[4-oxo-3-(phenylamino)-4,5,6,7-tetrahydro-1H-indol-2-yl]pyridin-2-yl}alaninamide] |
| 20.3 | O=C(Nc1ccccn1)Nc1cc(-c2[nH]c3c(c2Nc2ccccc2)C(=O)CCC3)ccn1 [Example 386, 1-{4-[4-oxo-3-(phenylamino)-4,5,6,7-tetrahydro-1H-indol-2-yl]pyridin-2-yl}-3-pyridin-2-ylurea] |
| 6.97 | O=C1CC(CF)Cc2[nH]c(-c3ccncc3)c(Nc3ccccc3)c21 (stereo not drawn) [Example 442, 6-(fluoromethyl)-3-(phenylamino)-2-(pyridin-4-yl)-1,5,6,7-tetrahydro-4H-indol-4-one] |
| 362 | O=C(O)CNc1cc(-c2[nH]c3c(c2Nc2ccccc2)C(=O)CCC3)ccn1 [Example 369, N-{4-[4-oxo-3-(phenylamino)-4,5,6,7-tetrahydro-1H-indol-2-yl]pyridin-2-yl}glycine] |
